Assay results reported in patent publication US7858295B2, “Methods for prolonging survival of platelets using UDP-galactose” (Velico Medical, Inc., priority 2002, dated 2010).

Experiments:
THP-1 cells = test: In vitro phagocytic assay: ingestion of CM-Orange-labeled chilled or room temperature human platelets by THP-1 phagocytes (flow cytometry); format: cell-based; details: for inhibitory effect on chilled platelet phagocytosis (in words) / % inhibition phagocytosis: chilled platelets; for inhibitory effect on chilled platelet phagocytosis (in words): various concentrations; for inhibitory effect on RT platelet phagocytosis (in words): room temperature platelets
Procedure: CR3 expression was monitored by flow cytometry using a PE-conjugated anti-human CD11b/Mac-1 mAb. Undifferentiated or differentiated THP-1 cells (2×10^6/ml) were plated onto 24-well plates and allowed to adhere for 45 minutes at 37° C. The adherent undifferentiated or differentiated macrophages were activated by the addition of 15 ng/ml PMA for 15 min. CM-range-labeled, chilled or room temperature platelets (10^7/well), previously subjected to different treatments were added to the undifferentiated or differentiated phagocytes in Ca^2+- and Mg^2+-containing HBSS and incubated for 30 min at 37° C. Following the incubation period, the phagocyte monolayer was washed with HBSS for 3 times, and adherent platelets were removed by treatment with 0.05% trypsin/0.53 mM EDTA in HBSS at 37° C. for 5 min followed by 5 mM EDTA at 4° C. to detach the macrophages for flow cytometric analysis of adhesion or ingestion of platelets (Brown et al., 2000). […] CM-Orange-labeled platelets incubated with macrophages were resolved from the phagocytes according to their forward and side scatter properties. The macrophages were gated, 10,000 events acquired for each sample, and data analyzed with CELLQuest software (Becton Dickenson).
To analyze the effects of monosaccharides on platelet phagocytosis, phagocytes (differentiated monocytic cell line THP-1) were incubated in monosaccharide solutions at various concentrations, and the chilled or room temperature platelets were added. Values in the Figures are means±SD of 3-5 experiments comparing percentages of orange-positive monocytes containing ingested platelets incubated with RT or chilled platelets).

human platelets = test: FITC-lectin (WGA, S-WGA, RCA I) binding to chilled or room temperature platelets by flow cytometry; format: cell-based; details: alone
Procedure: We then investigated whether wheat germ agglutinin (WGA), a lectin with specificity towards the terminal sugar (GlcNAc), binds more effectively to chilled platelets than to room temperature platelets. Washed, chilled or room temperature platelets were incubated with 2 μg/ml of FITC coupled WGA or FITC coupled succinyl-WGA for 30 min at room temperature and analyzed by flow cytometry. FIGS. 9A and 9B show the dot plots after incubation with FITC-WGA of room temperature (RT) or chilled (Cold) human platelets.
To analyze whether removal of GlcNAc residues reduces the binding of WGA to the platelet surface, chilled and room temperature washed human platelets were treated with 100 U/ml β-Hex for 30 min at 37° C.

CO[C@@H]1O[C@H](CO)[C@@H](O)[C@H](O)[C@@H]1O [Methyl-β-D-mannopyranoside]
inhibitory effect on chilled platelet phagocytosis (in words) (THP-1 cells): no inhibitory effect | inhibitory effect on RT platelet phagocytosis (in words) (THP-1 cells): no inhibitory effect

CC(=O)N[C@H]1C(O)O[C@H](CO)[C@@H](O)[C@@H]1O (stereo partly drawn) [GlcNac, N-acetyl-D-glucosamine]
inhibitory effect on chilled platelet phagocytosis (in words) (THP-1 cells): significantly inhibited

CO[C@H]1O[C@H](CO)[C@@H](O)[C@H](O)[C@H]1O [Methyl-α-D-glucopyranoside]
inhibitory effect on chilled platelet phagocytosis (in words) (THP-1 cells): did not have an inhibitory effect

O=c1ccn([C@@H]2O[C@H](COP(=O)(O)OP(=O)(O)O)[C@@H](O)[C@H]2O)c(=O)[nH]1 [UDP]
effect on S-WGA or RCA I binding to chilled or room temperature human platelets (human platelets): no effect

O=C[C@@H](O)[C@@H](O)[C@H](O)[C@H](O)CO [D-(+)-mannose]
inhibitory effect on chilled platelet phagocytosis (in words) (THP-1 cells): no inhibitory effect | inhibitory effect on RT platelet phagocytosis (in words) (THP-1 cells): no inhibitory effect

CO[C@H]1O[C@H](CO)[C@@H](O)[C@H](O)[C@@H]1O [Methyl-α-D-mannopyranoside]
inhibitory effect on chilled platelet phagocytosis (in words) (THP-1 cells): no inhibitory effect | inhibitory effect on RT platelet phagocytosis (in words) (THP-1 cells): no inhibitory effect

COC1OC(CO)C(O)C(O)C1O [Methyl-β-D-gludopyranoside]
inhibitory effect on chilled platelet phagocytosis (in words) (THP-1 cells): dose-dependent manner

O=C[C@H](O)[C@@H](O)[C@@H](O)[C@H](O)CO [D-(+)-galactose]
% inhibition phagocytosis (THP-1 cells; phagocytes incubated with 100 mM monosaccharide): did not significantly inhibit

CC(=O)N[C@@H]1[C@@H](O)[C@H](O)[C@@H](CO)O[C@H]1O [β-GlcNac]
% inhibition phagocytosis (THP-1 cells; 0.01 mM (10 μM) monosaccharide, listed as β-anomer of GlcNAc): 80% | inhibitory effect on chilled platelet phagocytosis (in words) (THP-1 cells): strongly inhibited
